Values of other authors in patent US20150164065A1, “ORGAN ARREST, PROTECTION, PRESERVATION AND RECOVERY” (priority 2002, published 2015).

How the values were obtained:
NK(2) receptor = biological target: T1, NK(2) receptor (Homo sapiens, UniProt P21452); conditions: relative to NK(1) receptor
T1 sequence (P21452 1-398): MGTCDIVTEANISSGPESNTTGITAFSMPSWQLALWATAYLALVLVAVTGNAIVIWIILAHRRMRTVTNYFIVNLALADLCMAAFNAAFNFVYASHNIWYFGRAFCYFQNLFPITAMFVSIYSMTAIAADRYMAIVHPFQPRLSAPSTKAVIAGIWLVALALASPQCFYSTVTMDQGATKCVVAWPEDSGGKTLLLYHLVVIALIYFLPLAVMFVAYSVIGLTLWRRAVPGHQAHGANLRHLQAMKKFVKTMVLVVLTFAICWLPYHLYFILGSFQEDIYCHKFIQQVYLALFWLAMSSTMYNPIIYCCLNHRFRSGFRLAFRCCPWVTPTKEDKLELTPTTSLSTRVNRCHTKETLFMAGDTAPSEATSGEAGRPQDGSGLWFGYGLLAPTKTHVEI

human NK(1) receptor = human NK(1) receptor (Homo sapiens, UniProt P25103)
human NK(1) receptor, sequence (P25103 whole entry): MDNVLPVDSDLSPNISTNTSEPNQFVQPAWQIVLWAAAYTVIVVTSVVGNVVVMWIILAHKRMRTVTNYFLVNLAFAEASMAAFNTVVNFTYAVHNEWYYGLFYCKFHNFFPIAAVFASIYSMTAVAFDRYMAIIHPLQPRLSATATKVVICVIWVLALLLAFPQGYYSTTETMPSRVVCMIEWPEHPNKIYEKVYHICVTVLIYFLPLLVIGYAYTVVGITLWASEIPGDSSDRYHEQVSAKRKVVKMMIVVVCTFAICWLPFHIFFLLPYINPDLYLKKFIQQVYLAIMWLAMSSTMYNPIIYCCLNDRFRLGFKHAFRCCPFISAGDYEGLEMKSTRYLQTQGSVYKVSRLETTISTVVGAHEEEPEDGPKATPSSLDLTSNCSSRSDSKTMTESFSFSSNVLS

NK(3) receptor = biological target: T2, NK(3) receptor (Homo sapiens, UniProt P29371); conditions: relative to NK(1) receptor
T2 sequence (P29371 1-465): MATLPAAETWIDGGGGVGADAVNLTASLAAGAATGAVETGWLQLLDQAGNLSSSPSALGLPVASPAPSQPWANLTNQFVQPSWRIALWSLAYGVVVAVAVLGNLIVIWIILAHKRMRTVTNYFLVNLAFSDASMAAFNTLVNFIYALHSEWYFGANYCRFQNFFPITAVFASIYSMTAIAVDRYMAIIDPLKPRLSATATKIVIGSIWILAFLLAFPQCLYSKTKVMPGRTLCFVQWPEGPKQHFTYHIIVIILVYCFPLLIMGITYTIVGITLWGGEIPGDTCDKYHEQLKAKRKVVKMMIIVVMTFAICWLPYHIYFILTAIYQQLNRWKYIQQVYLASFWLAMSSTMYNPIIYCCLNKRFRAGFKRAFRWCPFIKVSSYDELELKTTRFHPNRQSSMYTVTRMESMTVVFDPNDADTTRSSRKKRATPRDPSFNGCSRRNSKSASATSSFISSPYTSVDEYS

Row | Structure (SMILES) | ischemia-induced cell swelling (isolated brain slices) | selectivity toward NK(2) receptor (NK(2) receptor) | Ki (human NK(1) receptor) [nM] | selectivity toward NK(3) receptor (NK(3) receptor)
1 | CC1(C)CC(O)CC(C)(C)N1[O] [tempol(R)] | reduction of cell swelling |  |  | 
2 | CNC(=S)NC [dimethylthiourea] | reduction of cell swelling |  |  | 
3 | Cc1cccc(C)c1NC(=O)C[C@H]1CCN(C(=O)c2cc(C(F)(F)F)cc(C(F)(F)F)c2)[C@@H](Cc2ccccc2)C1.O=C(O)C[C@H](O)C(=O)O (relative stereo) [Example R116301, (2R-trans)-4-[1-[3,5-bis(trifluoromethyl)benzoyl]-2-(phenylmethyl)-4-piperidinyl]-N-(2,6-dimethylphenyl)-1-acetamide (S)-Hydroxybutanedioate] |  | over 200 fold | 0.45 | over 200 fold
4 | Cc1c(C)c2c(c(C)c1O)CC[C@](C)(C(=O)O)O2 [Trolox(R)] | reduction of cell swelling |  |  | 
